# Data from patent publication US11690860B2, “Treatment of HCV infected patients with cirrhosis” (Atea Pharmaceuticals, Inc., priority 2018, dated 2023).
# Where “and” joins values, the source holds several entries; their conditions need not be identical. Equal values may be shown once. Entries after “also recorded” stand apart in the source; their conditions may differ. Where a name gives a salt, the structure may show the parent alone.
# Key:
# Format in all cases: in vivo, human
# [1] = Safety/tolerability in the study of Compound 2
# Protocol: (§1) Doses were administered as the Compound 2 salt base. The free base Compound 1 equivalent is often given in parenthesis.
# (§2) Part C was a randomized, double-blind, placebo-controlled MAD study divided into three cohorts. […] The dose escalation only proceeded following satisfactory review of the data.
# However, this observation is consistent with previously published data showing rapid increase in lipids with HCV clearance upon initiation of DAA therapy in HCV-infected subjects.
# [2] = Plasma pharmacokinetics of Compound 1 and metabolite 1-7 (LC-MS/MS) in Parts C, D and E; conditions: based on plasma exposures
# Protocol: as §1, §2
# (§3) HCV-infected patients were treatment-naïve with HCV RNA ≥5 log 10 IU/mL. HCV RNA was quantified using COBAS® AmpliPrep TaqMAN® v2.0 with LLQ of 15 IU/mL. Plasma drug levels were measured using LC-MS/MS. […] Cirrhosis was confirmed by prior liver biopsy or Fibroscan >12.5 kPa. […] Mean ages of enrolled subjects were 44, 39, and 56 years in the non-cirrhotic GT1b 600 mg dose cohort, non-cirrhotic GT3 cohort, and the cirrhotic cohort, respectively.
# Plasma levels of metabolite 1-7 were measured using LC-MS/MS.
# [3] = test system: GT1b HCV; test: Part B: single ascending dose study, HCV RNA reduction in non-cirrhotic GT1b HCV-infected subjects
# Protocol: as §3
# Part A and Part B were previously conducted and described in WO 2018/144640. Part A and Part B were single ascending dose (SAD) studies.
# [4] = test system: GT1b HCV; test: Part C: multiple ascending dose study, 7 days QD, HCV RNA change in non-cirrhotic GT1 HCV-infected patients; conditions: for Mean ± SD HCV RNA maximum change from baseline / Individual HCV RNA maximum change from baseline / Mean ± SD HCV RNA change from baseline to 24 h: NC GT1b; for Mean ± SD HCV RNA maximum change from baseline / Mean ± SD HCV RNA change from baseline to 24 h: N=6
# Protocol: as §1, §2, §3
# [5] = test system: GT1, GT2, or GT3 HCV; test: Part E: 600 mg QD for 7 days, HCV RNA change in Child-Pugh A cirrhotic patients; conditions: for Mean Reduction After 24 hours: 600 mg; for Mean ± SD HCV RNA maximum change from baseline / Mean ± SD HCV RNA change from baseline to 24 h / Individual HCV RNA maximum change from baseline: Part E; for Mean ± SD HCV RNA maximum change from baseline: Child-Pugh A cirrhotic GT1/GT2/GT3, 600 mg/day QD 7 days; for Mean ± SD HCV RNA maximum change from baseline / Mean ± SD HCV RNA change from baseline to 24 h: N=6; for Mean ± SD HCV RNA change from baseline to 24 h: Child-Pugh A cirrhotic GT1/GT2/GT3, 600 mg/day
# Protocol: (§4) Doses were administered as the Compound 2 salt base. The free base Compound 1 equivalent is often given in parenthesis. […]
# as §3
# [6] = test system: GT3 HCV; test: Part D: 600 mg QD for 7 days, HCV RNA change in non-cirrhotic GT3 HCV-infected patients; conditions: for Individual HCV RNA maximum change from baseline / Mean ± SD HCV RNA maximum change from baseline / Mean ± SD HCV RNA change from baseline to 24 h: Part D; for Individual HCV RNA maximum change from baseline / Mean ± SD HCV RNA maximum change from baseline: NC GT3, 600 mg/day QD 7 days; for Mean ± SD HCV RNA maximum change from baseline / Mean ± SD HCV RNA change from baseline to 24 h: N=6; for Mean ± SD HCV RNA change from baseline to 24 h: NC GT3, 600 mg/day
# Protocol: as §4, §3
# [7] = test system: HCV GT1, GT2, GT3; test: All 600 mg QD cohorts (Parts C/D/E) taken together, plasma HCV RNA
# Protocol: as §1, §2, §3
# [8] = Part C, 600 mg/day QD 7 days, listed as Compd 2
# [9] = GT1, Child-Pugh A, 600 mg QD 7 days, n=3
# [10] = GT3, Child-Pugh A, 600 mg QD 7 days, n=1
structure (smiles),measurement,setting,value
"CNc1nc(N)nc2c1ncn2[C@@H]1O[C@H](CO[P@@](=O)(N[C@@H](C)C(=O)OC(C)C)Oc2ccccc2)[C@@H](O)[C@@]1(C)F [Compound 2, hemi-sulfate salt of isopropyl((S)-(((2R,3R,4R,5R)-5-(2-amino-6-(methylamino)-9H-purin-9-yl)-4-fluoro-3-hydroxy-4-methyltetrahydrofuran-2-yl)methoxy)(phenoxy)phosphoryl)-L-alaninate]","serious adverse events, dose-limiting toxicities, premature discontinuations","[1]; cirrhotic and non-cirrhotic HCV-infected subjects, up to 600 mg","No serious adverse events (AEs), dose-limiting toxicities, or premature discontinuations were reported; also recorded: No serious adverse events, dose-limiting toxicities or premature discontinuations were observed"
same,lipid abnormalities (cholesterol and triglyceride increase),[1]; compared to placebo,higher incidence of mostly low-grade lipid abnormalities
same,ALT/AST values,[1]; during the treatment period,decreased over time
same,"AEs, laboratory parameters, ECGs and vital signs",[1]; in vivo,"no other clinically relevant, dose-related patterns"
same,liver injury,[1]; in vivo,no findings suggestive of liver injury
same,tolerability,[1]; up to 600 mg (salt form) for seven days,well tolerated
same,impact of mild hepatic impairment on PK,[2],did not significantly impact
same,Individual Max Reduction of HCV RNA,[3]; 600 mg Compound 2 (equivalent of 550 mg Compound 1),2.1 log10 IU/ml and 2.3 log10 IU/ml and 2.6 log10 IU/ml
same,Mean Max Reduction of HCV RNA,"[3]; 600 mg Compound 2 (equivalent of 550 mg Compound 1), n=3",2.3 log10 IU/ml
same,Individual Max Reduction of HCV RNA,[3]; Compound 2 equivalent of 92 mg Compound 1,0.6 log10 IU/ml and 0.8 log10 IU/ml and 0.9 log10 IU/ml
same,Mean Max Reduction of HCV RNA,"[3]; Compound 2 equivalent of 92 mg Compound 1, n=3",0.8 log10 IU/ml
same,Individual Max Reduction of HCV RNA,[3]; Compound 2 equivalent of 275 mg Compound 1,1.1 log10 IU/ml and 1.8 log10 IU/ml and 2.2 log10 IU/ml
same,Mean Max Reduction of HCV RNA,"[3]; Compound 2 equivalent of 275 mg Compound 1, n=3",1.7 log10 IU/ml
same,Individual Max Reduction of HCV RNA,[3]; Compound 2 equivalent of 368 mg Compound 1,1.8 log10 IU/ml and 2.2 log10 IU/ml and 2.6 log10 IU/ml
same,Mean Max Reduction of HCV RNA,"[3]; Compound 2 equivalent of 368 mg Compound 1, n=3",2.2 log10 IU/ml
same,"HCV RNA < LOQ (15 IU/mL), subjects","[4]; GT1 non-cirrhotic, 600 mg QD 7 days, n=6",3/6
same,subjects achieving HCV RNA <LOQ,"[4]; Part C, 600 mg QD 7 days",50%
same,Mean ± SD HCV RNA maximum change from baseline,"[4]; Part C, 150 mg/day QD 7 days",2.6 ± 1.1 log10 IU/mL
same,Individual HCV RNA maximum change from baseline,"[4]; Part C, 150 mg/day QD 7 days, listed as Compd 2",1.7 log10 IU/mL and 1.8 log10 IU/mL (2×) and 2.7 log10 IU/mL and 3.0 log10 IU/mL and 4.5 log10 IU/mL
same,Mean ± SD HCV RNA change from baseline to 24 h,"[4]; Part C, 150 mg/day",1.2 ± 0.3 log10 IU/mL
same,Mean ± SD HCV RNA maximum change from baseline,"[4]; Part C, 300 mg/day QD 7 days",4.0 ± 0.4 log10 IU/mL
same,Individual HCV RNA maximum change from baseline,"[4]; Part C, 300 mg/day QD 7 days, listed as Compd 2",3.4 log10 IU/mL and 3.7 log10 IU/mL and 3.9 log10 IU/mL and 4.2 log10 IU/mL (2×) and 4.5 log10 IU/mL
same,Mean ± SD HCV RNA change from baseline to 24 h,"[4]; Part C, 300 mg/day",1.9 ± 0.2 log10 IU/mL
same,Individual HCV RNA maximum change from baseline,"[4]; Part C, 600 mg/day QD 7 days",4.3 log10 IU/mL and 5.2 log10 IU/mL and 5.3 log10 IU/mL and 3.5 log10 IU/mL and 4.0 log10 IU/mL and 4.1 log10 IU/mL
same,Mean ± SD HCV RNA maximum change from baseline,[4]; [8],4.4 ± 0.7 log10 IU/mL
same,Individual HCV RNA maximum change from baseline,[4]; [8],3.5 log10 IU/mL and 4.0 log10 IU/mL and 4.1 log10 IU/mL and 4.3 log10 IU/mL and 5.2 log10 IU/mL and 5.3 log10 IU/mL
same,Mean ± SD HCV RNA change from baseline to 24 h,"[4]; Part C, 600 mg/day",2.1 log10 IU/mL
same,Mean ± SD HCV RNA change from baseline to 24 h,"[4]; Part C, 600 mg/day, listed as Compd 2",2.1 ± 0.2 log10 IU/mL
same,antiviral activity / HCV RNA change in cirrhotic compared with non-cirrhotic subjects,"[5]; 600 mg/day QD 7 days, Part E vs Parts C and D",similar
same,"HCV RNA < LOQ (15 IU/mL), subjects",[5]; [9],1/3
same,Mean Max Reduction,[5]; [9],4.2 log10 IU/mL
same,Mean Reduction After 24 hours,"[5]; GT1, Child-Pugh A, n=3",2.4 log10 IU/mL
same,activity against HCV genotypes in cirrhotic patients,"[5]; GT1, GT2, and GT3",active
same,"HCV RNA < LOQ (15 IU/mL), subjects",[5]; [10],0/1
same,Mean (Individual) Max Reduction,[5]; [10],4.8 log10 IU/mL
same,Mean Reduction After 24 hours,"[5]; GT3, Child-Pugh A, n=1",2.2 log10 IU/mL
same,Mean ± SD HCV RNA maximum change from baseline,[5],4.6 log10 IU/mL and 4.5 log10 IU/mL
same,Mean ± SD HCV RNA maximum change from baseline,[5]; listed as Compd 2,4.6 ± 0.5 log10 IU/mL
same,Mean ± SD HCV RNA change from baseline to 24 h,[5],2.4 log10 IU/mL
same,Mean ± SD HCV RNA change from baseline to 24 h,[5]; listed as Compd 2,2.4 ± 0.2 log10 IU/mL
same,Individual HCV RNA maximum change from baseline,"[5]; cirrhotic GT1b, 600 mg/day QD 7 days",4.0 log10 IU/mL and 4.1 log10 IU/mL and 4.5 log10 IU/mL
same,Individual HCV RNA maximum change from baseline,"[5]; cirrhotic GT1b, 600 mg/day QD 7 days, listed as Compd 2","GT1b: 4.0, log10 IU/mL and 4.1 log10 IU/mL and 4.5 log10 IU/mL"
same,Individual HCV RNA maximum change from baseline,"[5]; cirrhotic GT2, 600 mg/day QD 7 days",GT2: 4.8 log10 IU/mL
same,Individual HCV RNA maximum change from baseline,"[5]; cirrhotic GT3, 600 mg/day QD 7 days, listed as Compd 2",5.1 log10 IU/mL and 5.2 log10 IU/mL
same,"HCV RNA < LOQ (15 IU/mL), subjects","[6]; GT3 non-cirrhotic, 600 mg QD 7 days, n=6",one subject achieved HCV RNA <LOQ within four days and 1/6
same,Individual HCV RNA maximum change from baseline,[6],4.2 log10 IU/mL and 4.4 log10 IU/mL and 4.5 log10 IU/mL (2×) and 5.0 log10 IU/mL
same,Mean ± SD HCV RNA maximum change from baseline,[6],4.5 log10 IU/mL
same,Mean ± SD HCV RNA maximum change from baseline,[6]; listed as Compd 2,4.5 ± 0.3 log10 IU/mL
same,Individual HCV RNA maximum change from baseline,[6]; listed as Compd 2,4.2 log10 IU/mL and 4.4 log10 IU/mL (2×) and 4.5 log10 IU/mL (2×) and 5.0 log10 IU/mL
same,Mean ± SD HCV RNA change from baseline to 24 h,[6],2.4 log10 IU/mL
same,Mean ± SD HCV RNA change from baseline to 24 h,[6]; listed as Compd 2,2.3 ± 0.3 log10 IU/mL
same,reductions in plasma HCV RNA,"[7]; 600 mg QD, steady state, regardless of genotype or cirrhosis status",−4.5 log10 IU/mL
same,plasma HCV RNA decrease within the first 24 h of dosing,[7]; after the first 600 mg dose,up to 2.4 log10 IU/mL
same,subjects achieving HCV RNA below the lower limit of quantitation,"[7]; cohorts receiving 600 mg QD, seven days of therapy",~30%
